Experimental data published in ChEMBL document CHEMBL1128305, “Metabotropic glutamate receptors: novel targets for drug development” (J Med Chem, 1995).
Several values for one entry are separate records, joined by “and”; a condition that tells them apart may be missing. Identical values can stand only once.

Key:
[1] = target: Metabotropic glutamate receptor 7 (Homo sapiens, UniProt Q14831); test: Concentration for half maximal activation of metabotropic glutamate mGluR7 in human
[2] = target: Metabotropic glutamate receptor 6 (Rattus norvegicus, UniProt P35349); test: Concentration for half maximal activation of metabotropic glutamate mGluR6 in rat
[3] = target: Metabotropic glutamate receptor 4 (Rattus norvegicus, UniProt P31423); test: Concentration for half maximal activation of metabotropic glutamate mGluR4a in rat
[4] = target: Metabotropic glutamate receptor 7 (Rattus norvegicus, UniProt P35400); test: Concentration for half maximal activation of metabotropic glutamate mGluR7 in rat
[5] = target: Metabotropic glutamate receptor 4 (Homo sapiens, UniProt Q14833); test: Concentration for half maximal activation of metabotropic glutamate mGluR4a in human
[6] = target: Metabotropic glutamate receptor 3 (Rattus norvegicus, UniProt P31422); test: Concentration for half maximal activation of metabotropic glutamate mGluR3 in rat
[7] = target: Metabotropic glutamate receptor 2 (Rattus norvegicus, UniProt P31421); test: Concentration for half maximal activation of metabotropic glutamate mGluR2 in rat
[8] = target: T1, Metabotropic glutamate receptor 1 (Rattus norvegicus, UniProt P23385); test: Concentration for half maximal activation of metabotropic glutamate mGluR1a in rat
[9] = target: Metabotropic glutamate receptor 2 (Homo sapiens, UniProt Q14416); test: Concentration for half maximal activation of metabotropic glutamate mGluR2 in human
[10] = target: Metabotropic glutamate receptor 8 (Mus musculus, UniProt P47743); test: Concentration for half maximal activation of metabotropic glutamate mGluR8 in mouse; type: single protein
[11] = target: T1, Metabotropic glutamate receptor 1; test: Concentration for half maximal activation of metabotropic glutamate mGluR1c in rat
[12] = target: T2, Metabotropic glutamate receptor 5 (Rattus norvegicus, UniProt P31424); test: Concentration for half maximal activation of metabotropic glutamate mGluR5a in rat
[13] = target: T2, Metabotropic glutamate receptor 5; test: Concentration for half maximal activation of metabotropic glutamate mGluR5b in rat
[14] = target: Metabotropic glutamate receptor 5 (Homo sapiens, UniProt P41594); test: Concentration for half maximal activation of metabotropic glutamate mGluR5a in human
[15] = target: T1, Metabotropic glutamate receptor 1; test: Concentration for half maximal activation of metabotropic glutamate mGluR1b in rat

Sequence of Metabotropic glutamate receptor 6 (P35349 whole entry): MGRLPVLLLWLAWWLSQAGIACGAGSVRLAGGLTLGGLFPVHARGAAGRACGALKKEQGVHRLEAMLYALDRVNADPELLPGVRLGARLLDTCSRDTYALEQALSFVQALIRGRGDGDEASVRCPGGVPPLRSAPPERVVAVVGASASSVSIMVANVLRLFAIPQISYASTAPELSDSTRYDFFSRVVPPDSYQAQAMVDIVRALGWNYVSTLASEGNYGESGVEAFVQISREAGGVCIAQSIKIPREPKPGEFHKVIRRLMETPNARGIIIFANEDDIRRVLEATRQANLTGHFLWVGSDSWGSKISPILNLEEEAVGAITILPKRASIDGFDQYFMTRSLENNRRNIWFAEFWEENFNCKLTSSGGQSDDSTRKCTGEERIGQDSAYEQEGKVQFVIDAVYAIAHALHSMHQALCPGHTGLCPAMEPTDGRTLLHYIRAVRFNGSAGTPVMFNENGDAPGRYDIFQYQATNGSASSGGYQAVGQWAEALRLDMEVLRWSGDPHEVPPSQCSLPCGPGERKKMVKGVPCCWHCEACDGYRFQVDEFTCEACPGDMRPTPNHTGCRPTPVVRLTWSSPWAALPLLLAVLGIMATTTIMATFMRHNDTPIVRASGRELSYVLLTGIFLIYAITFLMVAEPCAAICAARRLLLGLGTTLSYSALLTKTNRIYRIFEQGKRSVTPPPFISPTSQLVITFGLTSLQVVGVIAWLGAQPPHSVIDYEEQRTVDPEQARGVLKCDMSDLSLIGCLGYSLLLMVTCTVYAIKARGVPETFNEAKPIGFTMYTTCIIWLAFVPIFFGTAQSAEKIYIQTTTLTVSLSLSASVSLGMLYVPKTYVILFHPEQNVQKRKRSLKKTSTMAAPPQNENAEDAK
Sequence of Metabotropic glutamate receptor 4 (Rattus norvegicus, UniProt P31423) (P31423 whole entry): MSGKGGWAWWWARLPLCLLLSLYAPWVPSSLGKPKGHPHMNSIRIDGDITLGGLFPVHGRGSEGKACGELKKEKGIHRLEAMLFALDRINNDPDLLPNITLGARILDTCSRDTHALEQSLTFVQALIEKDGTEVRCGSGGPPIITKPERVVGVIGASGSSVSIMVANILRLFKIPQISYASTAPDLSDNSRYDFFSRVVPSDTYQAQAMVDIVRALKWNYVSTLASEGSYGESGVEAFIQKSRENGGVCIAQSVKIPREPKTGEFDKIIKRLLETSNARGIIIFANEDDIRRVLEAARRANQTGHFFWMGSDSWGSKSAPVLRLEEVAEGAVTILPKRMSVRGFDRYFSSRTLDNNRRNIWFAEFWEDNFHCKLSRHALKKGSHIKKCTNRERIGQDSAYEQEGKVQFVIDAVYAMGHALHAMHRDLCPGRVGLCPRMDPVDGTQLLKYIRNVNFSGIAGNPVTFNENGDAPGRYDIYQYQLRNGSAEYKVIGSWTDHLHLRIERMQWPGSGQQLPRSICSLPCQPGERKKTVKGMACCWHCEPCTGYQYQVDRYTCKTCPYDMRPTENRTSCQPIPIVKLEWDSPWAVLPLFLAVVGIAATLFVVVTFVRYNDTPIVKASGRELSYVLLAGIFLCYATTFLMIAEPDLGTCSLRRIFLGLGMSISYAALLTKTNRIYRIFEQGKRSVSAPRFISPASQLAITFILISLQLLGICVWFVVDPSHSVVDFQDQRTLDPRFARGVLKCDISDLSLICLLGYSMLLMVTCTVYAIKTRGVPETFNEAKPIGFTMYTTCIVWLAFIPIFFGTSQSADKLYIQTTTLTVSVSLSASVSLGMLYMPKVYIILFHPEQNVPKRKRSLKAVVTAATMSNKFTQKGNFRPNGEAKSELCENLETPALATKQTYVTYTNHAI
Sequence of Metabotropic glutamate receptor 7 (Homo sapiens, UniProt Q14831) (Q14831 whole entry): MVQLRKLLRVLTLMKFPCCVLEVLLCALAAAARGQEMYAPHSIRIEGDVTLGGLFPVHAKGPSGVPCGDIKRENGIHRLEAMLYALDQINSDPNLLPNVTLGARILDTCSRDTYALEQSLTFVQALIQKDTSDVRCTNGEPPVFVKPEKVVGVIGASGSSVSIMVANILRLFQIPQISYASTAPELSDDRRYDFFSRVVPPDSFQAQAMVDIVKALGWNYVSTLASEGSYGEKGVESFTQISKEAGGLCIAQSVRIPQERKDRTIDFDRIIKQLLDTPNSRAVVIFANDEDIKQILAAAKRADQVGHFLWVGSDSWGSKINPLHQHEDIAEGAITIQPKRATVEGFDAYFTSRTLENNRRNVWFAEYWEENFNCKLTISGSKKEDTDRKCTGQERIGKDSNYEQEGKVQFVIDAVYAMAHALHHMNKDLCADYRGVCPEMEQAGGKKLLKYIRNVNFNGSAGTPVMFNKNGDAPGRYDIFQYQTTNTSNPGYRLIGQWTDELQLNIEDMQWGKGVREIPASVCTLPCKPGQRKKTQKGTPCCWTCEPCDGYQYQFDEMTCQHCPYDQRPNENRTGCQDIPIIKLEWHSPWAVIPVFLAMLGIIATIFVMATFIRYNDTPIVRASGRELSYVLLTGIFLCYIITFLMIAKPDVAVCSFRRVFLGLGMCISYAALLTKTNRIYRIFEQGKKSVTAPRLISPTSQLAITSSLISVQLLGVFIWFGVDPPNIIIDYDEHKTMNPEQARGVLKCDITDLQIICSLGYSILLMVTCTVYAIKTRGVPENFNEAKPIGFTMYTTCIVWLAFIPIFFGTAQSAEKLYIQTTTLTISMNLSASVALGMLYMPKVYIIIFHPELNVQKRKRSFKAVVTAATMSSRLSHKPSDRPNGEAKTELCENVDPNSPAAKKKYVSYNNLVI
T2 sequence (P31424 whole entry): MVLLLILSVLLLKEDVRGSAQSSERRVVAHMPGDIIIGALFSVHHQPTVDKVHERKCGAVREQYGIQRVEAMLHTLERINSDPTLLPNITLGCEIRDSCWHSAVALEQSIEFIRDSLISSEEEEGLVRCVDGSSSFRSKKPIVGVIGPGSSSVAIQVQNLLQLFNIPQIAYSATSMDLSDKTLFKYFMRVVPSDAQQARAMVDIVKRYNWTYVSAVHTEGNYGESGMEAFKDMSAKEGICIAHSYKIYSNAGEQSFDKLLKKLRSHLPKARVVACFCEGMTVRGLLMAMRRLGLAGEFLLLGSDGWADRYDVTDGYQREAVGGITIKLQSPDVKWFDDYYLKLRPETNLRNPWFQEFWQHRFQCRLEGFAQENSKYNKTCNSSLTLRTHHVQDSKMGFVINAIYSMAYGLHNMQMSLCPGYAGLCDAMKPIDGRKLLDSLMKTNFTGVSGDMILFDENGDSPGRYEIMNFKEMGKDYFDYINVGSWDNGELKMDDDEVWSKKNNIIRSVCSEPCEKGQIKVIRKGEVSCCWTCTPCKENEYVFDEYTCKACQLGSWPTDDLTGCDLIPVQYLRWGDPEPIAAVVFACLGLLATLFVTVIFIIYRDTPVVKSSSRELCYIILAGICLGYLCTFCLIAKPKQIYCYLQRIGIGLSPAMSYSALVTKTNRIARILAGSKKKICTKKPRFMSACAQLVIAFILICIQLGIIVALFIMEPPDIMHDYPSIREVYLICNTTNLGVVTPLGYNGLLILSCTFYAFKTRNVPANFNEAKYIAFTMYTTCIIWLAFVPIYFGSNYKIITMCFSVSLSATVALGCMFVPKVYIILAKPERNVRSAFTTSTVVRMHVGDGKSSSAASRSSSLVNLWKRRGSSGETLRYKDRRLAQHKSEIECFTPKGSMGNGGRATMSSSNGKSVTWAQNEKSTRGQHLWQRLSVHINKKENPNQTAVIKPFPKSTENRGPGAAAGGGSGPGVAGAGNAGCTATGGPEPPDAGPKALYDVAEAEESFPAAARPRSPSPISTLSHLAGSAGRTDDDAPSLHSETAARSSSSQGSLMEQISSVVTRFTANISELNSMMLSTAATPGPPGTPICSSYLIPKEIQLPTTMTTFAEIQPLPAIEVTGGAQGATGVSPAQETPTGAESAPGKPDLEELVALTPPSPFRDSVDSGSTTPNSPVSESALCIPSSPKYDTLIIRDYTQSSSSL
Sequence of Metabotropic glutamate receptor 2 (Homo sapiens, UniProt Q14416) (Q14416 whole entry): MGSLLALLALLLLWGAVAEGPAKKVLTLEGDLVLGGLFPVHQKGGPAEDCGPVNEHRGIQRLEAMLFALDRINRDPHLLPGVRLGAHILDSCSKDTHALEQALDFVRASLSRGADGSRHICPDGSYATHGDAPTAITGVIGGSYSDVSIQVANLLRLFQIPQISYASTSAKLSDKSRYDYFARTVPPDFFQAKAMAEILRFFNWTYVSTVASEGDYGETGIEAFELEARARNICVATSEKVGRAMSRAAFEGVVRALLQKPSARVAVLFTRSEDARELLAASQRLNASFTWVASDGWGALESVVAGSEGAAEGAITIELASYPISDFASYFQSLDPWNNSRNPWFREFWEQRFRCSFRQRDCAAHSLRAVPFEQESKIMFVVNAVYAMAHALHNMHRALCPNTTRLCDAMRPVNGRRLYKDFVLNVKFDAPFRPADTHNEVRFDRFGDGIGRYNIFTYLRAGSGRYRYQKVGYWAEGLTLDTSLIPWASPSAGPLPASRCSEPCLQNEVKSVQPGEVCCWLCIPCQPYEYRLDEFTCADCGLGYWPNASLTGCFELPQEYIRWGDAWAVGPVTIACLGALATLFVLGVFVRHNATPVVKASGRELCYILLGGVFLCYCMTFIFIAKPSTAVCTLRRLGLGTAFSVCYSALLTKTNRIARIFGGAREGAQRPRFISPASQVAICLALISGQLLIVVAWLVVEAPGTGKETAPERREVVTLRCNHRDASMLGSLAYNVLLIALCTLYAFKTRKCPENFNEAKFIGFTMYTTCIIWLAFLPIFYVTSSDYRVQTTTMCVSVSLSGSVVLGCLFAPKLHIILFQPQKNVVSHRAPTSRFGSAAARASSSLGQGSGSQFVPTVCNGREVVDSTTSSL
Sequence of Metabotropic glutamate receptor 7 (Rattus norvegicus, UniProt P35400) (P35400 whole entry): as the sequence (Q14831 whole entry) above, with R5G, A27V, N454H, S488T, A520S, D578N counted along it

Structure (SMILES)	EC50 [1]	EC50 [2]	EC50 [3]	EC50 [4]	EC50 [5]	EC50 [6]	EC50 [7]	EC50 [8]	EC50 [9]	EC50 [10]	EC50 [11]	EC50 [12]	EC50 [13]	EC50 [14]	EC50 [15]
N[C@@H](COP(=O)(O)O)C(=O)O [DEXFOSFOSERINE]	< 200 µM	2.7 µM	4 µM	160 µM	1.3 µM										
N[C@H](C(=O)O)C1[C@@H](C(=O)O)[C@@H]1C(=O)O (stereo partly specified)			> 1000 µM			0.3 µM	0.3 µM	> 1000 µM							
N[C@H](C(=O)O)[C@H]1C[C@@H]1C(=O)O							0.75 µM		0.38 µM						
N[C@@H](CCP(=O)(O)O)C(=O)O	200 µM	0.9 µM	0.5 µM and 1.2 µM	160 µM and 500 µM	0.2 µM		> 1000 µM		> 1000 µM	0.4 µM	> 1000 µM				
N[C@@]1(C(=O)O)CC[C@@H](C(=O)O)C1	> 1000 µM	> 200 µM	> 100 µM and 39 µM	> 1000 µM		8 µM	5 µM and 7.7 µM		12.1 µM	> 100 µM		50 µM			
N[C@@H](Cn1oc(=O)[nH]c1=O)C(=O)O [QUISQUALATE]	> 1000 µM	1000 µM	> 100 µM and 129 µM	> 1000 µM	> 500 µM	40 µM	> 1000 µM		> 1000 µM	> 100 µM		0.3 µM and 0.2 µM	0.2 µM	0.15 µM	
N[C@@H](CCC(=O)O)C(=O)O [GLUTAMIC ACID]	> 500 µM	16 µM	5 µM and 3.2 µM	1000 µM and 1300 µM		3 µM				0.022 µM					
N[C@H](C(=O)O)c1cc(=O)[nH]o1 [IBOTENIC ACID]		1000 µM	590 µM			10 µM		6 µM		> 100 µM	60 µM	10 µM and 8 µM	8 µM		44 µM
